The record followed here is BindingDB's records for patent US20240109853 (Shanghai Yao Yuan Biotechnology Co., 2024).

The assay has as its target Alpha-protein kinase 1 (Homo sapiens, UniProt Q96QP1). In words: ALPK1 In Vitro Kinase Assay. On the procedure: ALPK1 kinase activity was measured in an in vitro assay using ADP-Heptose as the ALPK1 ligand and activator of its kinase activity and TIFA protein as the ALPK1 phosphorylation substrate. Since phosphorylated TIFA proteins oligomerize, Homogeneous Time-Resolved Fluorescence (HTRF) was used to measure protein: protein interaction between HA-tagged TIFA proteins as an indicator of TIFA phosphorylation. In brief, dose-response studies were performed with […] in 384-well assay plates. Each well contained 0.1 mg TIFA, ALPK1 (2 nM final concentration in reaction mixture) and kinase buffer (100 mM of HEPES pH 7.4, 4 mM DTT, 40 mM MgCl2, 20 mM of β-Glycerol phosphate disodium salt, 0.4 mM of Na3VO4, 0.16 mg/mL). Titrations of the test compounds were prepared in dimethylsulphoxide (DMSO). The reaction was initiated by addition of ATP and ADP-Heptose.

SMILES strings stand for the structures. Several values for one entry are separate records, joined by “and”; a condition that tells them apart may be missing. Equal entries are not always repeated.

Chain of Alpha-protein kinase 1 (Q96QP1 whole entry): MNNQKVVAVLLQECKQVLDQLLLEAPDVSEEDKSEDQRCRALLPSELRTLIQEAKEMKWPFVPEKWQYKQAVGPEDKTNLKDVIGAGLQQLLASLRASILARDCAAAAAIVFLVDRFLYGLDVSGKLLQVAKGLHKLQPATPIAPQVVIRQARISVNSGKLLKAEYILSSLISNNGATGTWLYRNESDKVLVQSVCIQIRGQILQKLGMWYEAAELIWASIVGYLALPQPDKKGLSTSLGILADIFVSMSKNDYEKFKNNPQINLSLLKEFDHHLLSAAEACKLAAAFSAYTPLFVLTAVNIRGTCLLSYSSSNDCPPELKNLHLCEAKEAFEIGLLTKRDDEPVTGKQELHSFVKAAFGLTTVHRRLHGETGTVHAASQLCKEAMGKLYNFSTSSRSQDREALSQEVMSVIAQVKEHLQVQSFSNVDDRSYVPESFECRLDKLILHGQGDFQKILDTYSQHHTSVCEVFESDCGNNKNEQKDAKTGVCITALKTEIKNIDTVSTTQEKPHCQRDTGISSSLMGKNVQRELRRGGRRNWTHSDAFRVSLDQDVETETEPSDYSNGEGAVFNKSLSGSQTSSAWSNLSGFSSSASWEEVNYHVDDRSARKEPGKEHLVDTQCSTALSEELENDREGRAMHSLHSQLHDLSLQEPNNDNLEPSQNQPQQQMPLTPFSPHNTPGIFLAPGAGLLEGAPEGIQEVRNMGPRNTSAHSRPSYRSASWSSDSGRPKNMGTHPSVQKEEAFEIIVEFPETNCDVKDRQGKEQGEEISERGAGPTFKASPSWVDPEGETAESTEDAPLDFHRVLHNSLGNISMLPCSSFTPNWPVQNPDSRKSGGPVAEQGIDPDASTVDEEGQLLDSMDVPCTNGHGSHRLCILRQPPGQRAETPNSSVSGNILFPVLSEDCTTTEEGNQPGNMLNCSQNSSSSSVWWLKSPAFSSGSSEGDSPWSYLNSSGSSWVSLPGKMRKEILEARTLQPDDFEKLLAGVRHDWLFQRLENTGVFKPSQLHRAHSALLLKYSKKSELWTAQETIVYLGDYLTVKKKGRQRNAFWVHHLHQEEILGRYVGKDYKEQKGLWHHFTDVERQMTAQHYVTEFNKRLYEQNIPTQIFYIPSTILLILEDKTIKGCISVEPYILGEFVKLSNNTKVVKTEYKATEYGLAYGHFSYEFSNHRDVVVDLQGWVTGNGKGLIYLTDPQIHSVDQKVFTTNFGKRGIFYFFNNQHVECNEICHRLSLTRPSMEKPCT

`CC(C)(c1ccc(Br)cc1)c1csc(NC(=O)NCc2ccc(N3CCNCC3)c(Br)c2)n1` [US20240109853, Compound A097]: the IC50 came out at 0.087 µM.
As for `COc1ccc(C(C)(C)c2csc(NC(=O)NCc3cc(F)c(C4CCNCC4)c(F)c3)n2)cc1` [US20240109853, Compound A151], the figure is 0.043 µM; as for `CC(C)(c1ccc(Br)cc1)c1csc(NC(=O)NCc2ccc(C3CCNCC3)c(F)c2)n1` [US20240109853, Compound A222], 0.056 µM; as for `C#C[C@@](C)(c1ccc(Cl)cc1)c1nc(NC(=O)NCCO)sc1Cl` [US20240109853, Compound A247], 0.408 µM.
Take `C#C[C@](C)(c1ccc(Cl)cc1)c1nc(NC(=O)NCCO)sc1Cl` [US20240109853, Compound A248]: the midpoint of inhibition, the IC50, lay at 1.29 µM.
To `C#CC(C)(c1ccc(Cl)cc1)c1csc(NC(=O)N2CC(N)C2)n1` (configuration not stated) [US20240109853, Compound A275] belongs 0.503 µM and 0.246 µM; to `C#CC(C)(c1ccc(Cl)cc1)c1csc(NC(=N)N)n1` (configuration not stated) [US20240109853, Compound A276], 0.345 µM.
As to `C#C[C@@](C)(c1ccc(Cl)cc1)c1csc(NC(=O)NC(C)CO)n1` (some centres not stated) [US20240109853, Compound A312], the IC50 is 0.545 µM and 0.614 µM.
As for `C#C[C@](C)(c1ccc(Cl)cc1)c1csc(NC(=O)NC(C)CO)n1` (some centres not stated) [US20240109853, Compound A314], the IC50 is 0.261 µM and 0.081 µM.
With `C#C[C@](C)(c1ccc(Cl)cc1)c1csc(NC(=O)NCC(C)O)n1` (some centres not stated) [US20240109853, Compound A316], the IC50 was 0.421 µM and 0.534 µM.
As for `C#C[C@@](C)(c1ccc(Cl)cc1)c1csc(NC(=O)NCC(C)O)n1` (some centres not stated) [US20240109853, Compound A317], the figure is 0.085 µM and 0.156 µM; as for `COc1ccc(C(C)(C)c2csc(NC(=O)c3ccc(N4CC5CC(C4)N5)cc3)n2)cc1` [US20240109853, Compound B048], 0.073 µM.

The term IC50 denotes the point on the concentration scale where inhibition reaches its midpoint. The low end stands for greater potency, the high end for weaker potency.
